These results are taken from patent US9562035B2, “Benzamide derivative useful as FASN inhibitors for the treatment of cancer” (Janssen Pharmaceutica NV, priority 2013, dated 2017).

The subject of assay [1] is A2780 ovarian cells. Description: A2780 Ovarian Cell Proliferation Assay in Lipid Reduced Medium, with Palmitate (control). The assay is classed as cell-based. As to conditions: Homo sapiens, A2780; lipid reduced medium, 25 μM palmitate, 96 h, MTT; read-out: Proliferation A2780 with Palmitate pIC50 (converted). A digest of the protocol: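 Read-out was MTT absorbance at 544 nm after 96 h at 37 °C. Cells grown overnight in RPMI1640/10% FCS were moved to 10% lipid-reduced serum with compound plus palmitate (final 25 μM, 0.2% fatty-acid-free BSA, 0.2% DMSO). IC50 came from least-squares curve fitting, expressed as −log(IC50).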

The test system of assay [2] is PC-3M-Luc-C6 prostate cells. As to the kind of experiment: In Vitro PC-3M-Luc-C6 Prostate Cell Proliferation Assay in Lipid Reduced Medium. Type of assay: cell-based. As to conditions: read-out: PC-3M-Luc-C6 Cells pIC50 (μM) (converted), lipid reduced serum, 96 h. The method, then: PC-3M-Luc-C6 prostate cells were obtained from Xenogen Corporation. Cells were maintained in MEM supplemented with 10% Fetal Calf Serum (FCS, Hyclone), 2 mM glutamine, 1 mM sodium pyruvate, 1% BME vitamins (available from for example, Sigma Aldrich), 0.1 mM non Essential Amino Acid and 50 μg/ml Gentamicin. The cells were passaged twice a week.
1000 PC-3M-Luc-C6 prostate cells (Xenogen) were seeded in a 384-well black with clear bottom plate (costar 3712BC) in 40 μl MEM, 10% LRS (Hyclo ne), 50 μg/ml Gentamicin, 2 mM Glutamine, 1 mM Sodium pyruvaat, 1% BME vitamins and 0.1 mM non Essential Amino Acid and incubated at 37° C., 5% CO2. The next day 10 μl test compound/DMSO diluted in medium was added (3E-5M, 1E-5M, 3E-6M, 1E-6M, 3E-7M, 1E-7M, 3E-8M, 1E-8M final concentration). Compounds were tested in duplicate. After 96 h incubation at 37° C., 5% CO2 25 μl ATP-glow mix was added. The plate was incubated for 30 min at 37° C. and luminescence was measured with the Envision.
(§1) pIC50 values were calculated as follows. Raw data generated by the instruments were normalized to % Controlmin values, which were calculated as: % Controlmin=100*(x−mLC)/(mHC−mLC),
(§2) where mLC and mHC are the means of the low control wells and high control wells on the plate, after manual exclusion of outliers. The relation between the % Controlmin values and concentration was fitted to a 4-parameter logistic curve using a non-linear least squares regression method to determine the pIC50 value. Outlying data points were excluded manually to get a correct fit. The pIC50 corresponds to −log 10(IC50), if the IC50 is expressed in molar units (http://www.ncbi.nlm.nih.gov/books/NBK91994). The IC50 parameter was always determined by non-linear regression, but one or more of the other parameters may have been held fixed on a relevant input value, such as 0 for the bottom values.
(§3) For dose response curves with FASN inhibitors in LNCaP_Vancouver or PC-3M-Luc_C6 cells the curves bottom out around 30 to 40% of the control value. A standard fit PL2, forcing the lower bound to this level was used.
(§4) Representative compounds of the present invention were tested according to the procedure as described in Biological Example 4a and 4b above, with results as listed in Table BIO-4, below.

Assay [3] has as its system LNCaP_Vancouver prostate cells. Description: In Vitro LNCaP Vancouver Prostate Cell Proliferation Assay in Lipid Reduced Medium. The assay is classed as cell-based. As to conditions: lipid reduced serum, 96 h, read-out: Vancouver Cells pIC50 (converted). Here is the method:
LNCaP_Vancouver prostate cells were obtained from the Vancouver Prostate Cancer Centre. Cells were maintained in RPMI-1640, 10% Fetal Calf Serum (FCS, Hyclone), 2 mM glutamine and 50 μg/ml Gentamicin.
For the proliferation experiment 1500 LNCaP_Vancouver cells per well were seeded in a 384-well black with clear bottom plate (costar 3712BC) in 40 μl RPMI-1640, 10% Lipid reduced serum (LRS, Hyclone), 50 μg/ml Gentamicin and 2 mM Glutamine and incubated at 37° C., 5% CO2. The next day 10 μl of test compound/DMSO diluted in medium was added (3E-5M, 1E-5M, 3E-6M, 1E-6M, 3E-7M, 1E-7M, 3E-8M, 1E-8M final concentration). Compounds were tested in duplicate. After 96 h incubation at 37° C., 5% CO2 25 μl ATP-glow mix was added. The plate was incubated for 30 min at 37° C. and luminescence was measured with the Envision.
as §1, §2, §3, §4

For assay [4], the system named is A2780 ovarian cells. As to the kind of experiment: A2780 Ovarian Cell Proliferation Assay in Lipid Reduced Medium, without Palmitate. The assay is classed as cell-based. As to conditions: Homo sapiens, A2780; lipid reduced medium, without palmitate, 96 h, MTT; read-out: Proliferation A2780 w/o Palmitate pIC50 (converted). An outline of the steps:
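A2780 cells were seeded in 10% FCS medium and switched next day to 10% lipid-reduced serum without palmitate. Compounds at 0.01–30 μM were added with 0.2% DMSO, 0.2% fatty-acid-free BSA and 0.25% ethanol final. After 96 h, MTT absorbance at 544 nm was normalized to plate controls, and IC50/pIC50 came from a 4-parameter logistic fit.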

Assay [5] concerns the target T1, hFASN enzyme (full length) (Homo sapiens, UniProt P49327).
T1 construct: 10 μL hFASN enzyme (full length, 300 ng, purified in house); made in house
Description: Fatty Acid Synthase (FASN) Inhibition Scintillation Proximity Assay. Type of assay: biochemical. As to conditions: read-out: FASN % Effect @1E−05M. A digest of the protocol:
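Eight compound concentrations (0.01–30 μM) tested in pH 7.5 phosphate buffer with DTT; human full-length enzyme converted [3H]-acetyl-CoA plus malonyl-CoA, with NADPH, over 60 min at room temperature. Hydrophobic [3H]-palmitate detected by bead proximity scintillation imaging; control-normalised data fitted for IC50/pIC50.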

T1 sequence (P49327 whole entry): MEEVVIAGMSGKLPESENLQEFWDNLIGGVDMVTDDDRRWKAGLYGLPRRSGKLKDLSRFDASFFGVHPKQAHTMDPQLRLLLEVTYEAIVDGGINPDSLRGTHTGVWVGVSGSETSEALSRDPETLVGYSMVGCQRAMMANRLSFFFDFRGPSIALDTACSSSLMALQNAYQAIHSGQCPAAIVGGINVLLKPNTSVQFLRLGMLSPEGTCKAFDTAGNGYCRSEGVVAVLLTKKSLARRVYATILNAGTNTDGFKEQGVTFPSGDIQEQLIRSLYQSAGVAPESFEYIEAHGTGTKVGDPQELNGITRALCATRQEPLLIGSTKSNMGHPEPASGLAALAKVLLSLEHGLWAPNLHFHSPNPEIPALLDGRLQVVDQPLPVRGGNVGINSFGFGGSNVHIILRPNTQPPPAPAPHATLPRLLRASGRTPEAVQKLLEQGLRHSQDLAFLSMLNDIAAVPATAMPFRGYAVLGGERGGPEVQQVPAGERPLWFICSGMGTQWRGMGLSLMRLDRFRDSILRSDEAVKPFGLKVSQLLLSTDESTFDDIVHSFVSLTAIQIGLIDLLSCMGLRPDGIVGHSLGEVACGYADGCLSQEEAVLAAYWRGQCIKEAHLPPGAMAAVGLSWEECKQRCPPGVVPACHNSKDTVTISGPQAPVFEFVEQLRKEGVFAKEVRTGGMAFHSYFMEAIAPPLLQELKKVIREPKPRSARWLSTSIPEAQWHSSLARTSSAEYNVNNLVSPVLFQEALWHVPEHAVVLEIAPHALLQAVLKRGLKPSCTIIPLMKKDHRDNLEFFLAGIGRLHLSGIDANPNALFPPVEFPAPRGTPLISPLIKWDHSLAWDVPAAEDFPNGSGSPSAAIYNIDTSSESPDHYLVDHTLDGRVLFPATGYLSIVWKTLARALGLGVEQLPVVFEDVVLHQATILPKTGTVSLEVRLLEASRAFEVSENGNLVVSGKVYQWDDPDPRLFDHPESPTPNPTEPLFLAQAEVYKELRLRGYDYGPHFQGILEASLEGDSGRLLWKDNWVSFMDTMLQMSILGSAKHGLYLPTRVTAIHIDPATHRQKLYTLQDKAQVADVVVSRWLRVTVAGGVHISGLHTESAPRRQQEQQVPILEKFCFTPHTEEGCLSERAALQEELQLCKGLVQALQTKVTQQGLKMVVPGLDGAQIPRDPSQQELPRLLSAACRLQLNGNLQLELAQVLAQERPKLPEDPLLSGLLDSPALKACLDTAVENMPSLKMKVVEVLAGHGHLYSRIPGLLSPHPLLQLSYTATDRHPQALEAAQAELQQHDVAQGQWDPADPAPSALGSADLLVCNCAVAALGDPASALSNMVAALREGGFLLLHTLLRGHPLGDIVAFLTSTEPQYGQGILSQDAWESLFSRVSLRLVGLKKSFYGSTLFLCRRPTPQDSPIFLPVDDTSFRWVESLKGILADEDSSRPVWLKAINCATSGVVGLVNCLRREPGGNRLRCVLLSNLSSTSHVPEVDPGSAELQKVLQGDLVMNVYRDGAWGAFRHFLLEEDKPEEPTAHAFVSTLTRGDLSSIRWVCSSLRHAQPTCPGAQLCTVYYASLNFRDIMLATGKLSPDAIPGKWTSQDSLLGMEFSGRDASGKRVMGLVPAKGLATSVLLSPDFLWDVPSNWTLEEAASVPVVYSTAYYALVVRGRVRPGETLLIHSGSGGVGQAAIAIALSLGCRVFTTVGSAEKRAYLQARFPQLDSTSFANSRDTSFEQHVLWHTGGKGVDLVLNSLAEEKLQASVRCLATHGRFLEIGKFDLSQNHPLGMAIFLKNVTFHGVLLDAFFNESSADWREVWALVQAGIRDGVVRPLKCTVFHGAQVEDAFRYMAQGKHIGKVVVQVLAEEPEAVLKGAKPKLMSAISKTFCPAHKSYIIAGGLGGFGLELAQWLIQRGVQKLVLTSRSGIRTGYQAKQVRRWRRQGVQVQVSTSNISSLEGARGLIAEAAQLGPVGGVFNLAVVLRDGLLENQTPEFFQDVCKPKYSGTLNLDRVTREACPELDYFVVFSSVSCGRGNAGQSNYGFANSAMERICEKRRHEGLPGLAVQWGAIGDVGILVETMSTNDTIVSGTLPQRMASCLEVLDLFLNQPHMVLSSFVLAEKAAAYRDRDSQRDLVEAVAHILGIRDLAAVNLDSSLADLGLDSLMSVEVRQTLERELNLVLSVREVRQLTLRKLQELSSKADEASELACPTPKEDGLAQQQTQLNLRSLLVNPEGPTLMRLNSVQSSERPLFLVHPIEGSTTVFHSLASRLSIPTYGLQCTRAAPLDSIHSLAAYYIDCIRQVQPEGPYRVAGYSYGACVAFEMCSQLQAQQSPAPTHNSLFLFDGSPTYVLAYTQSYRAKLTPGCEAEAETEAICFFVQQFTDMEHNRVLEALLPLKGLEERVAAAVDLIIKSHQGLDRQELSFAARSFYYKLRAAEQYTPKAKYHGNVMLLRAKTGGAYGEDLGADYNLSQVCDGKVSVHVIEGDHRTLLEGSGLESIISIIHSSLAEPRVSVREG

`CN(C)c1ccc(C(=O)N2CCC(c3ccc(-c4cnn(C)c4)cc3)CC2)cc1NC(=O)C1CC1` [Compound #273, N-(2-(dimethylamino)-5-(4-(4-(1-methyl-1H-pyrazol-4-yl)phenyl)piperidine-1-carbonyl)phenyl)cyclopropanecarboxamide]: the IC50 is over 10000 nM in the assay with A2780 ovarian cells [1], 0.269 µM in assay [2], 2190 nM in assay [3] and 182 nM in the assay on A2780 ovarian cells [4]. In assay [5], the inhibition at 10 µM was 98%.
